The target of assay [1] is T1, USP5-Cav3.2 interaction (recombinant USP5 binding to immobilized Cav3.2 domain III-IV linker peptides) (Homo sapiens, UniProt P45974).
T1 sequence (P45974 1-858): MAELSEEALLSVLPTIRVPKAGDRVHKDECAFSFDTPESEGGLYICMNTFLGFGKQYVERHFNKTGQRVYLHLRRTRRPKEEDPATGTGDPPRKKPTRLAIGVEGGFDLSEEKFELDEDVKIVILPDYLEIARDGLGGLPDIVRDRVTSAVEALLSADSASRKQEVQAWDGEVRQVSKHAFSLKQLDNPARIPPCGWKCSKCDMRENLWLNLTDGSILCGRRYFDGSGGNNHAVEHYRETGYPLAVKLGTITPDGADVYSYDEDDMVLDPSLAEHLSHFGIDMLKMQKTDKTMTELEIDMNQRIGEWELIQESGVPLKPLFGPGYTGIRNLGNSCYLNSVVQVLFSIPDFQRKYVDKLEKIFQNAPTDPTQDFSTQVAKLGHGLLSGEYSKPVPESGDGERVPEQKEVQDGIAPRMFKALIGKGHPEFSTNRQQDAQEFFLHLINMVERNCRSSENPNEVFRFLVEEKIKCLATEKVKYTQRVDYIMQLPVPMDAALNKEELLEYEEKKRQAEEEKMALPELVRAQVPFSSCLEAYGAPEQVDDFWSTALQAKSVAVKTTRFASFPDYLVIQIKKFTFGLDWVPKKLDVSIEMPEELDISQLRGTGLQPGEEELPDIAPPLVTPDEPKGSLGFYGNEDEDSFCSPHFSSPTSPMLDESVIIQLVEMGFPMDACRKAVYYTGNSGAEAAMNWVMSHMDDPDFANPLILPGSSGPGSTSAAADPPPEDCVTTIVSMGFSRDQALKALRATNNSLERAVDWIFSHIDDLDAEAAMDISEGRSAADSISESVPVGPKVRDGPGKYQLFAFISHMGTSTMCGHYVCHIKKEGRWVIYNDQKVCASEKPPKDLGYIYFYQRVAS
The assay is described as follows: Cav3.2-USP5 ELISA assay. Conditions: for Percent Inhibition: Cav3.2-USP5 ELISA of Example 1, concentration not given. An excerpt:
FIG. 3 is a schematic of the high throughput ELISA assay used to screen the exemplary compound of the applications. Here the Cav3.2 III-1V linker is immobilized and then recombinant USP5 is allowed to bind. Binding is detected via antibodies conjugated to horseradish peroxidase for a fluorescent readout. Compounds are applied and a reduction in fluorescence is indicative of a disruption of USP5-Cav3.2 interactions.
A high throughput ELISA assay was used to screen the exemplary compounds of the applications (FIG. 3). The ELISA is based on the binding of recombinant USP5 to immobilized Cav3.2 domain […] linker peptides. Binding interactions were detected using USP5 antibodies, and a secondary antibody conjugated to horseradish peroxidase, leading to a fluorescence readout. The ELISA was converted into a high through-put format 384 well plate. Multiple compound libraries were screened for small organic molecules that disrupt the USP5—Cav3.2 interaction. A number of hits were identified at the standard screening concentration, and the dose dependence of hits was investigated. Select actives were subjected to a secondary biochemical assays based on co-immunoprecipitations of USP5 and Cav3.2 from mouse neuronal tissue.
In the ELISA assay from Example 1, compound II-1 was added at varying concentrations, and the ability of II-1 to inhibit the USP5-Cav3.2 interaction examined. The percentage of inhibition as a function of drug concentration could be fitted using the Hill equation.
A general note: ELISA stands for enzyme-linked immunosorbent assay.

Assay [2] deals with diabetic, visceral, inflammatory and neuropathic pain. Conditions: hits of an initial CDRD active compound library screen; cited from earlier work.
The test system of assay [3] is recombinant USP5 (long or short splice variant). The assay is described as follows: USP5 deubiquitinase (DUB) activity assay. The assay is classed as biochemical. Conditions: recombinant long or short form of USP5, fluorescence over time (FIG. 8). The procedure: FIG. 8 examines the effect of exemplary compound II-1 on in vitro deubiqutinase activity of USP5. Here recombinant USP5 (either the long or the short splice variant) is incubated with a ubiquitinated substrate, and deubiquitination is measured via a fluorescence readout as a function of time.
To rule out the possibility that exemplary compound II-1 might mediate its analgesic effects by altering the deubiquitinase (DUB) activity of USPS rather than by disrupting the interactions with the channel, a DUB assays was conducted (FIG. 8). Here, a ubiquitinated substrate (ubiquitin-rhodamine110-glycine) is incubated with recombinant long or short forms of USP5, and deubiquitination of the substrate as a function of time is measured via a fluorescence readout. Both the long form and the short form of USP5 lead to deubiquitination of the substrate, as evident from an increasing and plateauing fluorescence signal (528 nm emission in response to 485 nm excitation). The commercially available DUB inhibitor Degrasyn which is used as a positive control prevents this.

Assay [4] deals with T2, association of USP5 and Cav3.2 channels (Mus musculus, UniProt P56399).
T2 construct: using whole brain lysates and probed for USP5; from tissue; host or cells: mouse whole brain homogenate/lysate
T2 sequence (P56399 1-858): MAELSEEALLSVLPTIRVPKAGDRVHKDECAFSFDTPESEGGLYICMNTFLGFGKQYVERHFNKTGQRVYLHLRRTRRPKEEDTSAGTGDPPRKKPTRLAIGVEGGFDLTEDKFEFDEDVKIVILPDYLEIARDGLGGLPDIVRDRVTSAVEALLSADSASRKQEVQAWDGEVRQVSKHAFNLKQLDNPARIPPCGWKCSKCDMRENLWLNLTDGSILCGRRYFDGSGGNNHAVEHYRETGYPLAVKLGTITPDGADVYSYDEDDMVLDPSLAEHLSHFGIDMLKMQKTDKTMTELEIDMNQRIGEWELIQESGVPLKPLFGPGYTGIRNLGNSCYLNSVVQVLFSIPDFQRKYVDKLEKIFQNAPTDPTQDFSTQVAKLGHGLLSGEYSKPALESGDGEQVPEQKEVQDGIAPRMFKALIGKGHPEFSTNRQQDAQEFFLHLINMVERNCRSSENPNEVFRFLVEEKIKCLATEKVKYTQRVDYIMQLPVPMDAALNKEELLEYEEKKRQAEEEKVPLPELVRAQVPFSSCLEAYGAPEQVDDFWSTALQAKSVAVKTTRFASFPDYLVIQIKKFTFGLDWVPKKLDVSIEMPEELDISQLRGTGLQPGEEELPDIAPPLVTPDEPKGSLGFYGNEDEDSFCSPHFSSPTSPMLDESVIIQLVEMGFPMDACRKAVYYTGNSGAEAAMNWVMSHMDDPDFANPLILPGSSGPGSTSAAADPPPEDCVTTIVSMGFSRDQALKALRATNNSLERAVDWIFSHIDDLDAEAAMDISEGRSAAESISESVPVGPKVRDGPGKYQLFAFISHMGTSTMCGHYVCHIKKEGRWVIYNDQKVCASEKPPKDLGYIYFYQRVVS
The experiment in a line: Co-immunoprecipitation of USP5 with Cav3.2 from brain lysate. The assay is classed as binding. The settings on record: 1 uM compound, whole brain lysates, n=5 (FIG. 4). The procedure: FIG. 4 is a graph showing the results of the of immunoprecipitation assay with Cav3.2 channels and a rabbit 3.2 polyclonal antibody using whole brain lysates and probed for USP5 (n=5). Quantifications were normalized to bound USP5 to Cav3.2 IP/alpha-tubulin. 1 uM of exemplary compounds II-1 and II-2 were used in the incubation. 5 uM of a positive control compound was used in the incubation.
A co-immunoprecipitation assay was implemented as a secondary screen for actives derived from the compound library screen. Moause brain homogenate was prepared, and the tissue containing was incubated with a rabbit Cav3.2 polyclonal antibody to immunoprecipitate Cav3.2 channel complexes. The precipitates were run on a Western blot and probed with an antibody against USP5 (n=5). Band intensities for bound USP5 were quantified and normalized to alpha-tubulin (FIG. 4). 1 μM of exemplary compounds II-1 and II-2 were used in the incubation. 5 μM of a control compound identified in a previous library screen was used as a positive control.

Assay [5] concerns formalin induced nocifensive responses. The experiment in a line: Formalin-induced pain assay. The assay is classed as in vivo. The settings on record: mice, intrathecal delivery, both phases (FIG. 5). The procedure: Formalin was injected into the hindpaw of a mouse, and the time that the mouse spent licking and biting its paw was determined. There are two phases of these nocifensive behavioral responses—phase I occurs immediately after formalin injection and reflects an acute response, phase II occurs approximately thirty minutes after formalin injection and reflects inflammatory pain. II-1 inhibited the duration of both phases in a dose dependent manner. […] Formalin injection into the hindpaw mediates nocifensive responses (paw licking, biting). There is an initial phase that reflects an acute responses to formalin injection, followed by a quiescent period and a second phase of nocifensive behaviors that reflects inflammatory pain. The duration of the responses is reflective of the amount of pain. […] The same doses were then used in a chronic inflammatory pain assay (i.e. CFA).

Assay [6] relates to CFA induced thermal hypersensitivity. The experiment in a line: Complete Freund's Adjuvant (CFA) model of chronic inflammatory pain, thermal hypersensitivity. The assay is classed as in vivo, mice. The procedure:
The latency to paw withdrawal in response to radiate heat to the paw decreases after CFA, and II-1 reverses this hypersensitivity in a dose dependent manner, indicating a strong analgesic effect of II-1. […] CFA injection into the hind paw leads to long lasting (weeks) mechanical and thermal hypersensitivity of the hind paw that is reflective of chronic inflammatory pain states. Thermal hypersensitivity is assessed by applying a radiant heat source to the hind paw of the animal and measuring the time between application of the heat source and the withdrawal of the paw. In CFA treated animals, the withdrawal latencies are dramatically shortened, and reflective of thermal hypersensitivity (i.e. thermal pain responses). […] Two asterisks indicate statistical significance at the 0.01 level, three asterisks indicate statistical significance at the 0.001 level relative to CFA+vehicle. FIG. 7 compares the effects of exemplary compound II-1 on CFA mediated thermal hypersensitivity in wild type mice and in mice lacking Cav3.2 channels (45 minutes after administration of the compound). […] Cav3.2^-/- mice have compensatory mechanisms that lead to increased thermal hypersensitivity in response to CFA even though Cav3.2 channels are absent.

For assay [7], the system named is CFA induced thermal hypersensitivity in Cav3.2-/- mice. The assay is described as follows: CFA thermal hypersensitivity in Cav3.2 null mice. The assay is classed as in vivo. The settings on record: 45 minutes after administration (FIG. 7). The procedure:
FIG. 7 compares the effects of exemplary compound II-1 on CFA mediated thermal hypersensitivity in wild type mice and in mice lacking Cav3.2 channels (45 minutes after administration of the compound). […] Cav3.2^−/− mice have compensatory mechanisms that lead to increased thermal hypersensitivity in response to CFA even though Cav3.2 channels are absent.

`CC(C)CCC(CCC(C)C)NCC1SC(=S)NC1=O` (stereo not drawn) [II-10]: in assay [1], the “Percent Inhibition” value is listed as 28%.
Same read-out and setting: next, `O=C(O)CCNCC1SC(=S)NC1=O` (stereo not drawn) [II-8]: 82%.
Consider `O=c1c(O)c(-c2ccc(O)c(O)c2)oc2c(O)c(O)cc(O)c12` [gossypetin], for which the “protection from pain in mice” value in assay [2] is “protect from diabetic, visceral, inflammatory and neuropathic pain in mice”.
For `CC(C)C(NCC1SC(=S)NC1=O)C(=O)O` (stereo not drawn) [II-3], the “Percent Inhibition” value in assay [1] was found to be 100%.
Take `CC(CO)(CO)NCC1SC(=S)NC1=O` (stereo not drawn) [II-2]: in assay [3], the “deubiquitination of ubiquitin-rhodamine110-glycine by USP5 (fluorescence readout)” value (from here on “deubiquitination”) is reported as “fail to inhibit deubiquitination”. Moreover, in assay [4], the “USP5 bound to Cav3.2 IP, normalized to alpha-tubulin” value was “disrupt the association of USP5 and Cav3.2 channels in neuronal tissue”. Moreover, the “Percent Inhibition” value in assay [1] amounted to 100%.
`CC(C)CC(NCC1SC(=S)NC1=O)C(=O)O` (stereo not drawn) [II-4]: in assay [1], the “Percent Inhibition” value worked out at 100%.
Turning to `O=C1NC(=S)SC1CNC1(CCO)CCCCC1` (stereo not drawn) [II-11], the “Percent Inhibition” value in assay [1] was determined as 75%.
Regarding `CCC[C@H](NC(=O)/C(C#N)=C/c1cccc(Br)n1)c1ccccc1` [Degrasyn, reference compound], the “deubiquitination” value in assay [3] is “inhibits this fluorescence signal”.
For `O=C(O)CN(CC(=O)O)CC1SC(=S)NC1=O` (stereo not drawn) [II-7], in assay [1], the “Percent Inhibition” value came to 85%.
Regarding `Cc1ccc(C(=O)Nc2ccc(S(=O)(=O)O)c3cc(S(=O)(=O)O)cc(S(=O)(=O)O)c23)cc1NC(=O)c1cccc(NC(=O)Nc2cccc(C(=O)Nc3cc(C(=O)Nc4ccc(S(=O)(=O)O)c5cc(S(=O)(=O)O)cc(S(=O)(=O)O)c45)ccc3C)c2)c1` [suramin], the “protection from pain in mice” value in assay [2] is “protect from diabetic, visceral, inflammatory and neuropathic pain in mice”.
Consider `O=C1NC(=S)SC1CNCCCO` (stereo not drawn) [II-9], for which the “Percent Inhibition” value in assay [1] came out at 6%.
Take `CC(O)C(NCC1SC(=S)NC1=O)C(=O)O` (stereo not drawn) [II-1]: the “duration of nocifensive responses (paw licking, biting), phase I and phase II” value in assay [5] was “response time is shortened in a dose dependent manner”. Further, in assay [3], the “deubiquitination” value is given as “does not mediate DUB inhibition”. The “USP5 bound to Cav3.2 IP, normalized to alpha-tubulin” value in assay [4] is “disrupt the association of USP5 and Cav3.2 channels in neuronal tissue”. Moreover, the “Percent Inhibition” value in assay [1] worked out at 100%. Besides, the “dose-response of percent inhibition in the Cav3.2-USP5 ELISA” value in assay [1] (varying concentrations, fitted with the Hill equation (FIG. 9)) is reported as “dose dependence of the effect”. For the same compound, the “thermal paw withdrawal latency after CFA” value in assay [6] (mice, intrathecal delivery, dose response (FIG. 6)) was “shortened latencies are reversed in a dose dependent manner”. Moreover, the “thermal paw withdrawal latency after CFA, wild type mice” value in assay [6] (wild type Cav3.2+/+ mice, 45 minutes after administration (FIG. 7)) is reported as “reversed the CFA-induced reduction in thermal paw withdrawal latencies”. Moreover, in assay [7], the “thermal paw withdrawal latency after CFA, Cav3.2 knockout mice” value is “no longer able to reverse CFA induced thermal hypersensitivity”.
For `NCCCCC(NCC1SC(=S)NC1=O)C(=O)O` (stereo not drawn) [II-6], in assay [1], the “Percent Inhibition” value was determined as 87%.
With `CCC(C)C(NCC1SC(=S)NC1=O)C(=O)O` (stereo not drawn) [II-5], in assay [1], the “Percent Inhibition” value is reported as 86%.
The same measure, in the same setting: next, `O=C1NC(=S)SC1CNC1CCCCC1` (stereo not drawn) [II-12]: 82%.

Values taken from patent US20230364061A1, “THIAZOLIDINE DERIVATIVES FOR INHIBITING CAV3.2-USP5 INTERACTIONS” (Zymedyne Therapeutics Inc., priority 2020, published 2023).
